“Also recorded” adds a separate entry of the source.
System: P. falciparum Cam3.II lines
Assay: Isobologram analyses (fixed-ratio drug combinations)
Assay type: cell-based, Plasmodium falciparum
Details: across asynchronous parasites, early rings and trophozoites
Protocol: Assays were performed with fixed ratios of drug combinations (1:0, 4:1, 2:1, 1:1, 1:2, 1:4, and 0:1), tested in duplicate. Combinations were prepared from 16×IC50 drug stocks and tested across a range of two-fold dilutions. Assays were conducted with asynchronous cultures exposed for 72 hr or with tightly synchronized rings or trophozoites (tested at 0–3 hr or 24–27 hr post-invasion, respectively) exposed for 3 hr. Post-pulse drug washouts were conducted as described above for in vitro determination of IC50 levels. IC50 values were derived for each compound tested alone, and fractional IC50 (FIC50) values were determined for each compound tested in combination (FIC50 = […]) and plotted for each drug combination. For each combination, the mean of the sums of FIC50 values at each combination (mean ΣFIC50) was also calculated and the results illustrated using heat maps.

SMILES | Interaction with WLL or WLW
CCCCN(CCCC)CC(O)c1cc(Cl)cc2c1-c1ccc(Cl)cc1/C2=C/c1ccc(Cl)cc1 (centres unmarked) [LMF, lumefantrine] | Additive to antagonistic
Clc1ccc2c(N3CCN(CCCN4CCN(c5ccnc6cc(Cl)ccc56)CC4)CC3)ccnc2c1 [PPQ, piperaquine] | Additive to antagonistic; also recorded: antagonism observed in asynchronous parasites and early rings was attenuated in trophozoites
CCN(CC)CCCC(C)Nc1ccnc2cc(Cl)ccc12 (centres unmarked) [CQ, chloroquine] | Additive to antagonistic; also recorded: moderate to potent antagonism

Same assay, conditions: asynchronous parasites, 72 hr

SMILES | Interaction with WLL or WLW
CCCCN(CCCC)CC(O)c1cc(Cl)cc2c1-c1ccc(Cl)cc1/C2=C/c1ccc(Cl)cc1 (centres unmarked) [LMF, lumefantrine] | mild antagonism

Same assay, conditions: combined with WLL; Asynchronous, 72 hr; Cam3.II K13C580Y

SMILES | Mean of the sums of FIC50 (mean ΣFIC50)
CCCCN(CCCC)CC(O)c1cc(Cl)cc2c1-c1ccc(Cl)cc1/C2=C/c1ccc(Cl)cc1 (centres unmarked) [LMF, lumefantrine] | 1.24
Clc1ccc2c(N3CCN(CCCN4CCN(c5ccnc6cc(Cl)ccc56)CC4)CC3)ccnc2c1 [PPQ, piperaquine] | 1.37
CCN(CC)CCCC(C)Nc1ccnc2cc(Cl)ccc12 (centres unmarked) [CQ, chloroquine] | 1.53

Same assay, conditions: combined with WLL; Asynchronous, 72 hr; Cam3.II K13WT

SMILES | Mean of the sums of FIC50 (mean ΣFIC50)
CCCCN(CCCC)CC(O)c1cc(Cl)cc2c1-c1ccc(Cl)cc1/C2=C/c1ccc(Cl)cc1 (centres unmarked) [LMF, lumefantrine] | 1.42
Clc1ccc2c(N3CCN(CCCN4CCN(c5ccnc6cc(Cl)ccc56)CC4)CC3)ccnc2c1 [PPQ, piperaquine] | 1.52
CCN(CC)CCCC(C)Nc1ccnc2cc(Cl)ccc12 (centres unmarked) [CQ, chloroquine] | 1.41

Same assay, conditions: combined with WLL; Rings, 3 hr exposure; Cam3.II K13C580Y

SMILES | Mean of the sums of FIC50 (mean ΣFIC50)
CCCCN(CCCC)CC(O)c1cc(Cl)cc2c1-c1ccc(Cl)cc1/C2=C/c1ccc(Cl)cc1 (centres unmarked) [LMF, lumefantrine] | 1.13
Clc1ccc2c(N3CCN(CCCN4CCN(c5ccnc6cc(Cl)ccc56)CC4)CC3)ccnc2c1 [PPQ, piperaquine] | 1.41
CCN(CC)CCCC(C)Nc1ccnc2cc(Cl)ccc12 (centres unmarked) [CQ, chloroquine] | 1.70

Same assay, conditions: combined with WLL; Rings, 3 hr exposure; Cam3.II K13WT

SMILES | Mean of the sums of FIC50 (mean ΣFIC50)
CCCCN(CCCC)CC(O)c1cc(Cl)cc2c1-c1ccc(Cl)cc1/C2=C/c1ccc(Cl)cc1 (centres unmarked) [LMF, lumefantrine] | 1.23
Clc1ccc2c(N3CCN(CCCN4CCN(c5ccnc6cc(Cl)ccc56)CC4)CC3)ccnc2c1 [PPQ, piperaquine] | 1.46
CCN(CC)CCCC(C)Nc1ccnc2cc(Cl)ccc12 (centres unmarked) [CQ, chloroquine] | 1.69

Same assay, conditions: combined with WLL; Trophozoites, 3 hr exposure; Cam3.II K13C580Y

SMILES | Mean of the sums of FIC50 (mean ΣFIC50)
CCCCN(CCCC)CC(O)c1cc(Cl)cc2c1-c1ccc(Cl)cc1/C2=C/c1ccc(Cl)cc1 (centres unmarked) [LMF, lumefantrine] | 1.24
Clc1ccc2c(N3CCN(CCCN4CCN(c5ccnc6cc(Cl)ccc56)CC4)CC3)ccnc2c1 [PPQ, piperaquine] | 1.23
CCN(CC)CCCC(C)Nc1ccnc2cc(Cl)ccc12 (centres unmarked) [CQ, chloroquine] | 1.75

Same assay, conditions: combined with WLL; Trophozoites, 3 hr exposure; Cam3.II K13WT

SMILES | Mean of the sums of FIC50 (mean ΣFIC50)
CCCCN(CCCC)CC(O)c1cc(Cl)cc2c1-c1ccc(Cl)cc1/C2=C/c1ccc(Cl)cc1 (centres unmarked) [LMF, lumefantrine] | 1.12
Clc1ccc2c(N3CCN(CCCN4CCN(c5ccnc6cc(Cl)ccc56)CC4)CC3)ccnc2c1 [PPQ, piperaquine] | 1.32
CCN(CC)CCCC(C)Nc1ccnc2cc(Cl)ccc12 (centres unmarked) [CQ, chloroquine] | 1.89

Same assay, conditions: combined with WLW; Asynchronous, 72 hr; Cam3.II K13C580Y

SMILES | Mean of the sums of FIC50 (mean ΣFIC50)
CCCCN(CCCC)CC(O)c1cc(Cl)cc2c1-c1ccc(Cl)cc1/C2=C/c1ccc(Cl)cc1 (centres unmarked) [LMF, lumefantrine] | 1.07
Clc1ccc2c(N3CCN(CCCN4CCN(c5ccnc6cc(Cl)ccc56)CC4)CC3)ccnc2c1 [PPQ, piperaquine] | 1.33
CCN(CC)CCCC(C)Nc1ccnc2cc(Cl)ccc12 (centres unmarked) [CQ, chloroquine] | 1.36

Same assay, conditions: combined with WLW; Asynchronous, 72 hr; Cam3.II K13WT

SMILES | Mean of the sums of FIC50 (mean ΣFIC50)
CCCCN(CCCC)CC(O)c1cc(Cl)cc2c1-c1ccc(Cl)cc1/C2=C/c1ccc(Cl)cc1 (centres unmarked) [LMF, lumefantrine] | 1.32
Clc1ccc2c(N3CCN(CCCN4CCN(c5ccnc6cc(Cl)ccc56)CC4)CC3)ccnc2c1 [PPQ, piperaquine] | 1.44
CCN(CC)CCCC(C)Nc1ccnc2cc(Cl)ccc12 (centres unmarked) [CQ, chloroquine] | 1.29

Same assay, conditions: combined with WLW; Rings, 3 hr exposure; Cam3.II K13C580Y

SMILES | Mean of the sums of FIC50 (mean ΣFIC50)
CCCCN(CCCC)CC(O)c1cc(Cl)cc2c1-c1ccc(Cl)cc1/C2=C/c1ccc(Cl)cc1 (centres unmarked) [LMF, lumefantrine] | 0.98
Clc1ccc2c(N3CCN(CCCN4CCN(c5ccnc6cc(Cl)ccc56)CC4)CC3)ccnc2c1 [PPQ, piperaquine] | 1.30
CCN(CC)CCCC(C)Nc1ccnc2cc(Cl)ccc12 (centres unmarked) [CQ, chloroquine] | 1.54

Same assay, conditions: combined with WLW; Rings, 3 hr exposure; Cam3.II K13WT

SMILES | Mean of the sums of FIC50 (mean ΣFIC50)
CCCCN(CCCC)CC(O)c1cc(Cl)cc2c1-c1ccc(Cl)cc1/C2=C/c1ccc(Cl)cc1 (centres unmarked) [LMF, lumefantrine] | 0.95
Clc1ccc2c(N3CCN(CCCN4CCN(c5ccnc6cc(Cl)ccc56)CC4)CC3)ccnc2c1 [PPQ, piperaquine] | 1.20
CCN(CC)CCCC(C)Nc1ccnc2cc(Cl)ccc12 (centres unmarked) [CQ, chloroquine] | 1.45

Same assay, conditions: combined with WLW; Trophozoites, 3 hr exposure; Cam3.II K13C580Y

SMILES | Mean of the sums of FIC50 (mean ΣFIC50)
CCCCN(CCCC)CC(O)c1cc(Cl)cc2c1-c1ccc(Cl)cc1/C2=C/c1ccc(Cl)cc1 (centres unmarked) [LMF, lumefantrine] | 1.01
Clc1ccc2c(N3CCN(CCCN4CCN(c5ccnc6cc(Cl)ccc56)CC4)CC3)ccnc2c1 [PPQ, piperaquine] | 1.20
CCN(CC)CCCC(C)Nc1ccnc2cc(Cl)ccc12 (centres unmarked) [CQ, chloroquine] | 1.41

Same assay, conditions: combined with WLW; Trophozoites, 3 hr exposure; Cam3.II K13WT

SMILES | Mean of the sums of FIC50 (mean ΣFIC50)
CCCCN(CCCC)CC(O)c1cc(Cl)cc2c1-c1ccc(Cl)cc1/C2=C/c1ccc(Cl)cc1 (centres unmarked) [LMF, lumefantrine] | 1.16
Clc1ccc2c(N3CCN(CCCN4CCN(c5ccnc6cc(Cl)ccc56)CC4)CC3)ccnc2c1 [PPQ, piperaquine] | 1.14
CCN(CC)CCCC(C)Nc1ccnc2cc(Cl)ccc12 (centres unmarked) [CQ, chloroquine] | 1.57

Same assay, conditions: early rings and trophozoites

SMILES | Interaction with WLL or WLW
CCCCN(CCCC)CC(O)c1cc(Cl)cc2c1-c1ccc(Cl)cc1/C2=C/c1ccc(Cl)cc1 (centres unmarked) [LMF, lumefantrine] | largely additive

Reference: PMC6553790 (PLoS Pathogens, 2019)
